From patent US20050187581A1, “Methods of treating disorders with electric fields” (priority 2000, published 2005)

Columns and labels:
[1] = tested on: BALB 3T3/A31 fibroblast/embryo cells; test: Membrane potential of BALB 3T3 cells, DiBAC intensity; type: cell-based, murine; details: final concentration of 0.4 mM A23187
Protocol: A23187 is a monocarboxylic acid extracted from Streptomyces chartreusensis that acts as a mobile-carrier calcium ionophore. DiBAC is a fluorescent dye that enters the cell membrane when the membrane's potential changes. Thus, when the membranes of the BALB 3T3 cells depolarize, the DiBAC enters those membranes thereby increasing the intensity of the DiBAC signal (Y-axis) in the BALB 3T3 cells.
The changes in membrane potential were measured with flow cytometry. The methodology for the flow cytometry was as follows. Culture in DMEM was supplemented with 5% FCS 10 mM HEPES. It was then de-touched with 0.02% trypsin and 0.025% EDTA. […] It was then loaded with DiBAC4(3) of a final concentration of 200 nM. It was incubated at 37 degree C. for >5 min. Then the flow cytometry measurements were performed.

ovariectomized rats = details: restraint, after 60 min session, n=6
Protocol: Rats were restricted by wrapping each with a thin polycarbonate sheet and laying it over the lower electrode for 30 min.
To examine the effect of exposure to EF, we used normal and ovariectomized rats. Normal rats were divided into two groups of restraint alone and restraint plus EF.
Ovariectomies were performed 4 weeks before experimentation. EF exposure and restraint treatment applied in this study were as follows: Rats were exposed to 50 Hz, 17,500 V/m EF for a total of 1 hr. Rats were restrained with thin polycarbonate sheeting for the latter half of the EF exposure period. The experimental design in the control groups was the same as in the experimental group except for the absence of EF exposure. […]
Hematological analyses including red and white blood cell count, platelet count, hematocrit and hemoglobin levels were performed using an automatic multi-hemocytometer (Sysmec CC-78, Sysmec inc., Tokyo, Japan). Plasma glucose, lactate and pyruvate levels were measured with an automatic analyzer (7170 Hitachi, Hitachi Co. ltd., Tokyo, Japan). ACTH levels were measured by using an ACTH radio immunoassay kit (ACTH IRMA, MITSUBISHI CHEMICAL Co. Ltd.) and a gamma counter (Auto-Gamma 5530 Gamma Counting System, Packard Instrument Co. ltd.). Plasma corticosterone level was measured using a commercial kit (ImmuChem Double Antibody Corticosterone kit, ICN Biomedicals Inc.). […]

mouse splenocytes = test: [Ca^2+]c-high cells in lectin-stimulated mouse splenocytes, fluo-3 flow cytometry; type: cell-based, BALB/c mice
Protocol: In order to avoid contact of the cells and the lower electrode, polycarbonate membrane (Isopore, MILLIPORE, MA USA) was placed between the dish and the insert. Approximately 1 ml of the cell suspension was poured into culture well/space and covered with a lid.
Female BALB/c mice, 4-7 wk old obtained from CLEA Inc. (Tokyo, Japan) maintained in a conventional animal house equipped with clean air-filtering device were splenectomized under anesthesia, and cell suspensions of splenocytes were prepared. To examine cell viability, the cells were cultivated in Dulbecco's modified Eagle's medium (SIGMA, MO, USA) supplemented with 10% fetal bovine serum (FSB). The cells were maintained in Hank's balanced salt solution (HBSS) (SIGMA, MO, USA) during examination for [Ca^2+]c which was carried out within 4 hr after cell preparation. Cells were stored at 4 degree C. prior to use.
Splenocytes (10^6 cells/ml) were incubated for 20 min at 37 degrees C. in HBSS containing 2.5 μM fluo-3-acetoxylmethyl (Molecular Probes, USA) [Vandenberghe et al., 1990]. The cell suspension was then diluted 5 times with HBSS containing 1% FBS, incubated for 40 min at 37 degrees C., washed 3 times with assay buffer, and the cells were then suspended in the assay buffer at a concentration of 1×10^6/ml. Throughout the cell preparation, the cell suspensions were mixed gently.
Considering the reported synergistic interaction between EMF and mitogen (Walleczek and Liburdy, 1990), concanavalin-A (Con-A) (Seikagaku Co., Tokyo, Japan) and phytohemaglutinin (PHA) (SIGMA, MO, USA) were used.
Taking into account the results of the viability test for exposed murine splenocytes earlier assayed, we chose to use the optimum culture and exposure conditions (60 Hz, 6 μA/cm^2 EF) in carrying out the following five experiments: • (1) cells suspended in HEPES-buffered saline (BS)+1 mM CaCl2 were exposed to EF for a total of 40 min, and 12.5 μg/ml of Con-A was added after the first 8 min of exposure. The control groups consisted of EF-unexposed cells containing Con-A, and EF-exposed cells without Con-A. Percent [Ca^2+]c-high cells was checked at certain exposure points; • (2) cells in HEPES-BS+1 mM CaCl2 were exposed for a total of 12 min, and different concentrations (1 ng-12.5 μg/ml) of Con-A were added after the first 4 min of exposure. The control group was essentially the same as that of the experimental group but without EF-exposure; • (3) cells in HEPES-BS+1 mM CaCl2 were exposed for a total of 8 min, and 5 μg/ml of PHA was added after the first 4 min of exposure. The control groups consisted of EF-unexposed cells containing PHA, and EF-exposed cells without PHA; • (4) cells suspended in HEPES-BS without CaCl2 were exposed for a total of 12 min, and different concentrations (1 ng-5 μg/mil) of Con-A were added after the first 4 min of exposure. The control group was essentially the same as the experimental group but without EF exposure; and • (5) to evaluate the persistent effect of EF exposure, cells suspended in HEPES-BS+[…] were exposed for a total of 4 min, after which different concentrations (0.025-12.5 μg/ml) of Con-A were added, and the generation of [Ca^2+]c-high cells for the next 8 min without EF exposure was monitored with flow cytometry. The control was essentially the same as the experimental group but without any EF-exposure. Statistical Analysis

murine splenocytes = test: Cytoplasmic free Ca^2+ in murine splenocytes stimulated with ConA, fluo3 flow cytometry; type: cell-based, mice; details: ConA stimulation after 4 min exposure
Protocol: In order to determine the effect of EF on calcium ion concentration in murine splenocytes, specific EF field exposures of 60 Hz were applied to murine splenocytes. Mice were splenectomized under anesthesia. In a 60 mm dish, the spleen was injected with PBS (phosphate buffered saline including 0.083% NH4Cl). The cells were re-suspended and maintained in Hank's balanced salt solution (HBSS) (SIGMA, MO, USA), during examination for [Ca^2+ ]c, which was carried out within 4 hours after cell preparation. Cells were stored at 4° C. prior to use.
The application of a 60 Hz EF to splenocyte cells created applied current densities of 6, 20, 60, and 200 μA/cm^2. Splenocyte cells were exposed to these conditions for 4 minutes, after which exposure the splenocyte samples were stimulated with Concanavalin A (ConA). Following stimulation of splenocytes with ConA, cytoplasmic free Ca^2+ concentration was determined by fluo3 flow cytometry.

Compound: CNc1ccc2oc(C[C@H]3O[C@@]4(CC[C@H]3C)O[C@H]([C@H](C)C(=O)c3ccc[nH]3)[C@H](C)C[C@H]4C)nc2c1C(=O)O [A23187]
- Membrane potential (DiBAC intensity) [1]: alters the membrane potential

Compound: CN1C(=O)CN=C(c2ccccc2)c2cc(Cl)ccc21 [diazepam]
- WBC counts (ovariectomized rats): 85 ×10^2 cells/μl

Compound: concanavalin-A [Con-A]
- Time post-Con-A stimulation of decline in [Ca^2+]c-high cells (mouse splenocytes; 12.5 μg/ml Con-A): approximately 4 min
- Time to saturation point of Con-A-induced response after addition of the mitogen (mouse splenocytes; 12.5 μg/ml Con-A): 5 to 8 min
- Number of [Ca^2+]c-high cells (mouse splenocytes; 12.5 μg/ml Con-A, 1 mM CaCl2, EF-exposed and unexposed cell suspensions): increased significantly
- [Ca^2+]c-high cells compared to cells stimulated with 0.025 μg/ml of Con-A (mouse splenocytes; 3.125-12.5 μg/ml Con-A, unexposed or earlier exposed to EF for 4 min): significant increase
- Time post-Con-A stimulation at which sustained increase in [Ca^2+]c-high cells leveled off (mouse splenocytes; 3.125 and 6.25 μg/ml Con-A): about 8 min
- Con-A-dependent [Ca^2+]c rise (mouse splenocytes; Ca^2+-free cell condition, control and EF-exposed groups): negligible
- Calcium concentration in the splenocyte cells (murine splenocytes): increased
